Assay results reported in US20220135591A1, “HETEROCYCLIC COMPOUNDS AS INHIBITORS OF MONOACYLGLYCEROL LIPASE (MAGL)” (Hoffmann-La Roche Inc., priority 2019, published 2022).
pIC50: −log10 of the molar value.

What follows are compounds tested against T1, MAGL (Homo sapiens, UniProt Q99685) (assay: 2-AG assay: MAGL inhibitory activity by hydrolysis of 2-arachidonoylglycerol to arachidonic acid, mass spectrometry). Settings: 2-AG assay (values marked [b]).
T1 sequence (Q99685 1-303): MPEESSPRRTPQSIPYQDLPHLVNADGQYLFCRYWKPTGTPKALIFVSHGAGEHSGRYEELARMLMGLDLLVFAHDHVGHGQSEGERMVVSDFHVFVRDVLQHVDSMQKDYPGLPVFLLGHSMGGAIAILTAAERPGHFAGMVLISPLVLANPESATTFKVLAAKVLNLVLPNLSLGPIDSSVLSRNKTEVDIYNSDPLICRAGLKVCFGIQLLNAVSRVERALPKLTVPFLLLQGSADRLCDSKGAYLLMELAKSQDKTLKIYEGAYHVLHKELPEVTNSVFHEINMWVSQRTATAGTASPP
Type: biochemical
Summary of the method: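 Hydrolysis of 8 μM 2-arachidonoylglycerol by […] was run for 30 min at RT after a 15 min compound preincubation, in Tris/EDTA/Tween buffer. Test compounds spanned […]. The product was measured by online SPE-MS/MS (transitions 303.1→259.1 and 311.1→267.0), and activity was derived from the arachidonic acid/d8-arachidonic acid signal ratio.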

Row | SMILES | pIC50
1 | CC(C)(C)Cn1cc(-c2c(F)cc(C(=O)N3CCN(c4nc5nc(Cl)ccc5o4)CC3)cc2F)nn1 [Example 93, (4-(5-chlorooxazolo[4,5-b]pyridin-2-yl)piperazin-1-yl)(3,5-difluoro-4-(1-neopentyl-1H-1,2,3-triazol-4-yl)phenyl)methanone] | 8.15
2 | CC(C)(C)n1cnc(-c2ccc(C(=O)N3CCN(c4nc5nc(Cl)ccc5o4)CC3)cc2Cl)n1 [Example 90, (4-(1-(tert-butyl)-1H-1,2,4-triazol-3-yl)-3-chlorophenyl)(4-(5-chlorooxazolo[4,5-b]pyridin-2-yl)piperazin-1-yl)methanone] | 7.80
3 | Cn1c(-c2ccc(C(=O)N3CCN(c4nc5nc(Cl)ccc5o4)CC3)cc2)nnc1C(C)(C)C [Example 76, [4-(5-tert-butyl-4-methyl-1,2,4-triazol-3-yl)phenyl]-[4-(5-chlorooxazolo[4,5-b]pyridin-2-yl)piperazin-1-yl]methanone] | 5.88
4 | COc1cc(C(=O)N2CCN(c3nc4nc(Cl)ccc4o3)CC2)ccc1-c1cn(CC(C)(C)C)nn1 [Example 237, (4-(5-chlorooxazolo[4,5-b]pyridin-2-yl)piperazin-1-yl)(3-methoxy-4-(1-neopentyl-1H-1,2,3-triazol-4-yl)phenyl)methanone] | 8.15
5 | CC(C)(C)Cn1cc(-c2ccc(C(=O)N3CCN(c4nc5nc(Cl)ccc5o4)C[C@@H]3CO)cc2)nn1 (stereo in doubt) [Example 290, [(2R)-4-(5-chlorooxazolo[4,5-b]pyridin-2-yl)-2-(hydroxymethyl)piperazin-1-yl]-[4-[1-(2,2-dimethylpropyl)triazol-4-yl]phenyl]methanone] | 5.68
6 | COc1cc(C(=O)N2CCN(c3nc4nc(Cl)ccc4o3)CC2)ccc1-c1cnn(CC(C)(C)C)n1 [Example 238, (4-(5-chlorooxazolo[4,5-b]pyridin-2-yl)piperazin-1-yl)(3-methoxy-4-(2-neopentyl-2H-1,2,3-triazol-4-yl)phenyl)methanone] | 9.00
7 | COC(C)(C)Cn1cc(-c2ccc(C(=O)N3CCN(c4nc5nc(Cl)ccc5o4)CC3)cc2)nn1 [Example 258, [4-(5-chlorooxazolo[4,5-b]pyridin-2-yl)piperazin-1-yl]-[4-[1-(2-methoxy-2-methyl-propyl)triazol-4-yl]phenyl]methanone] | 7.51
8 | COc1cc(C(=O)N2CCN(c3nc4nc(Cl)ccc4o3)CC2)ccc1-c1ncn(C(C)(C)C)n1 [Example 124, (4-(1-(tert-butyl)-1H-1,2,4-triazol-3-yl)-3-methoxyphenyl)(4-(5-chlorooxazolo[4,5-b]pyridin-2-yl)piperazin-1-yl)methanone] | 7.09
9 | Cc1ccc2oc(N3CCN(C(=O)c4ccc(-c5nnc(C(C)(C)C)o5)c(C(F)(F)F)c4)CC3)nc2n1 [Example 121, [4-(5-tert-butyl-1,3,4-oxadiazol-2-yl)-3-(trifluoromethyl)phenyl]-[4-(5-methyloxazolo[4,5-b]pyridin-2-yl)piperazin-1-yl]methanone] | 7.89
10 | CC(C)(C)c1nc(-c2ccc(C(=O)N3CCN(c4nc5nc(Cl)ccc5o4)CC3)cc2C(F)(F)F)no1 [Example 81, [4-(5-tert-butyl-1,2,4-oxadiazol-3-yl)-3-(trifluoromethyl)phenyl]-[4-(5-chlorooxazolo[4,5-b]pyridin-2-yl)piperazin-1-yl]methanone] | 8.05
11 | Cc1ccc2oc(N3CCN(C(=O)N4CC(NC(=O)c5ccc(F)cc5Cl)C4)CC3)nc2n1 [Example 254, 2-chloro-4-fluoro-N-[1-[4-(5-methyl-[1,3]oxazolo[4,5-b]pyridin-2-yl)piperazine-1-carbonyl]azetidin-3-yl]benzamide] | ≤ 4.90
12 | Cc1ccc2oc(N3CCN(C(=O)c4ccc(-c5cn(CC(C)(C)C)nn5)c(C#N)c4)CC3)nc2n1 [Example 235, 5-(4-(5-methyloxazolo[4,5-b]pyridin-2-yl)piperazine-1-carbonyl)-2-(1-neopentyl-1H-1,2,3-triazol-4-yl)benzonitrile] | 6.98
13 | CC(C)(CF)c1nnc(-c2ccc(C(=O)N3CCN(c4nc5nc(Cl)ccc5o4)CC3)cc2F)o1 [Example 280, [4-(5-chlorooxazolo[4,5-b]pyridin-2-yl)piperazin-1-yl]-[3-fluoro-4-[5-(2-fluoro-1,1-dimethyl-ethyl)-1,3,4-oxadiazol-2-yl]phenyl]methanone] | 6.92
14 | Cc1ccc2oc(N3CCN(C(=O)c4ccc(-c5cn(CC(C)(C)F)nn5)cc4)CC3)nc2n1 [Example 133, (4-(1-(2-fluoro-2-methylpropyl)-1H-1,2,3-triazol-4-yl)phenyl)(4-(5-methyloxazolo[4,5-b]pyridin-2-yl)piperazin-1-yl)methanone] | 7.03

Now from value to compound:

Row | pIC50 | SMILES
15 | 8.70 | Cc1cc(C(=O)N2CCN(c3nc4nc(Cl)ccc4o3)CC2)ccc1-c1nnn(CC(C)(C)C)n1 [Example 302, [4-(5-chlorooxazolo[4,5-b]pyridin-2-yl)piperazin-1-yl]-[4-[2-(2,2-dimethylpropyl)tetrazol-5-yl]-3-methyl-phenyl]methanone]
16 | 6.96 | C#Cc1ccc(C(=O)N2CCN(c3nc4nc(Cl)ccc4o3)CC2)cc1OC [Example 104, (4-(5-chlorooxazolo[4,5-b]pyridin-2-yl)piperazin-1-yl)(4-ethynyl-3-methoxyphenyl)methanone]
17 | 8.00 | Cc1cc(C(=O)N2CCN(c3nc4nc(Cl)ccc4o3)CC2)cnc1OCC1(C(F)(F)F)CC1 [Example 153, (4-(5-chlorooxazolo[4,5-b]pyridin-2-yl)piperazin-1-yl)(5-methyl-6-((1-(trifluoromethyl)cyclopropyl)methoxy)pyridin-3-yl)methanone]
18 | 7.70 | CC1(COc2ncc(C(=O)N3CCN(c4nc5nc(Cl)ccc5o4)CC3)cc2Cl)CC1 [Example 149, (5-chloro-6-((1-methylcyclopropyl)methoxy)pyridin-3-yl)(4-(5-chlorooxazolo[4,5-b]pyridin-2-yl)piperazin-1-yl)methanone]
19 | 6.50 | Cc1cc(C(=O)N2CCN(c3nc4nc(Cl)ccc4o3)CC2)cnc1OCC1(C)COC1 [Example 157, (4-(5-chlorooxazolo[4,5-b]pyridin-2-yl)piperazin-1-yl)(5-methyl-6-((3-methyloxetan-3-yl)methoxy)pyridin-3-yl)methanone]
20 | 7.05 | Cc1cc(C(=O)N2CCN(c3nc4nc(Cl)ccc4o3)CC2)cnc1OCC1CC1 [Example 155, (4-(5-chlorooxazolo[4,5-b]pyridin-2-yl)piperazin-1-yl)(6-(cyclopropylmethoxy)-5-methylpyridin-3-yl)methanone]
21 | 6.95 | Cc1cc(C(=O)N2CCN(c3nc4nc(Cl)ccc4o3)CC2)cnc1-c1nnn(CC(C)(C)C)n1 [Example 308, [4-(5-chlorooxazolo[4,5-b]pyridin-2-yl)piperazin-1-yl]-[6-[2-(2,2-dimethylpropyl)tetrazol-5-yl]-5-methyl-3-pyridyl]methanone]
22 | 7.92 | Cc1cc(C(=O)N2CCN(c3nc4nc(Cl)ccc4o3)CC2)ccc1-c1ncn(C(C)(C)C)n1 [Example 97, (4-(1-(tert-butyl)-1H-1,2,4-triazol-3-yl)-3-methylphenyl)(4-(5-chlorooxazolo[4,5-b]pyridin-2-yl)piperazin-1-yl)methanone]
23 | 7.34 | Cc1ccc2oc(N3CCN(C(=O)c4cnc(OCC5(C(F)(F)F)CC5)c(F)c4)CC3)nc2n1 [Example 150, (5-fluoro-6-((1-(trifluoromethyl)cyclopropyl)methoxy)pyridin-3-yl)(4-(5-methyloxazolo[4,5-b]pyridin-2-yl)piperazin-1-yl)methanone]
